{"source": "patent US20260107957A1", "about": "“USE OF AN EMULSIFIER DERIVED FROM RICINOLEIC ACID TO INCREASE THE ABSORPTION OF CALCIUM AND PHOSPHORUS IN THE DIGESTIVE TRACT OF FARM ANIMALS” (priority 2023, published 2026)", "tested_on": "laying hens", "experiment": "Assessment of shell quality in laying hen farms", "assay_type": "in vivo", "conditions": "egg production", "procedure": "In order to assess the effect of the use of the nutritional supplement on the calcium and phosphorus absorption in laying hens, several studies on laying hens from different farms were carried out. The studies comprised the analysis of animals before and after the feed with the formulation containing the nutritional supplement comprising ingredients shown in Table 3.\nMore specifically, an assessment of the shell quality in laying hens was conducted by collecting the eggs before and after feeding the animals with the formulation containing the nutritional supplement. Hens from farms in the states of Espírito Santo (350,000 hens), São Paulo (2,000,000 hens), Paraná (1,100,000 hens), and Minas Gerais ([…]) were fed with a pair of feed formulas, one without and another one with the nutritional supplement of the present invention.\nLaid eggs were collected after feeding the hens with regular feed and later with the feed containing the emulsifier of the present invention. Data obtained from the analysis of the eggs from the farms in Espírito Santo, São Paulo, Paraná, and Minas Gerais are included in Tables 6 to 9 below, the beneficial effects on the shells being emphasized thereof, among them the reduction in cracks in chicken eggs."}
{"compound": "CCCCCC[C@@H](O)C/C=C\\CCCCCCCC(=O)[O-].[Na+]", "note": "[emulsifier derived from ricinoleic acid, Sodium Ricinolate]", "values": [{"measurement": "increase of the amount of saleable eggs", "result": "up to 5%"}, {"measurement": "eggs produced daily lost by shell problems", "setting": "usual loss up to 7%", "result": "below 2%"}]}
